This is an account of results in patent US11865101B2, “Cromolyn metal complexes as enhanced pharmaceutical formulations and method of preparing the same” (University of Puerto Rico, priority 2020, dated 2024).

For series [1] the following is noted: orally administered, absorption from the gastrointestinal tract; cited from earlier work.
A short description of series [2]: Dissolution / stability in FaSSGF (pH 1.60) at 37° C. The format is physicochemical. The settings on record: FaSSGF pH=1.60, 37° C. The method, then:
Dissolution profiles—Dissolution profiles were recorded for CS, Cromolyn-Zn, Cromolyn-Mg, and Cromolyn-Ca and quantified by measuring absorbance at 237 nm against a reagent blank containing the buffered media. Dissolution tests were performed in a PBS buffer (pH=7.40) and FaSSGF (pH=1.60) at 37° C. under constant stirring (150 rpm). Absorbance measurements were performed on an Agilent Technologies Cary Series UV-Vis Spectrophotometer, Cary 100 UV-Vis model; using the UV Cary Scan software version v.20.0.470.
The stability of these materials in biologically relevant media was used to understand the ability of the pMCs to sustain blood plasma concentration for CS. A higher blood concentration might allow for longer circulation times and adequate delivery to the target tissues and organs. This is currently a pharmacological disadvantage for oral formulations of CS (<1% bioavailability and low solubility ˜100.0 mg/mL at 20° C.). […] Therefore, no further dissolution studies were carried out in this media.

The conditions of series [3]: noted by others; above it CS forms supramolecular aggregates; cited from earlier work.
Series [4] can be described thus: Dissolution profile in PBS (pH 7.40) at 37° C., UV absorbance at 237 nm. The settings on record: PBS pH=7.40, 37° C., 150 rpm, after 1 hr. The format is physicochemical. The method, then:
Dissolution profiles—Dissolution profiles were recorded for CS, Cromolyn-Zn, Cromolyn-Mg, and Cromolyn-Ca and quantified by measuring absorbance at 237 nm against a reagent blank containing the buffered media. Dissolution tests were performed in a PBS buffer (pH=7.40) and FaSSGF (pH=1.60) at 37° C. under constant stirring (150 rpm). Absorbance measurements were performed on an Agilent Technologies Cary Series UV-Vis Spectrophotometer, Cary 100 UV-Vis model; using the UV Cary Scan software version v.20.0.470. Stock Solution: A standard stock solution of CS was prepared by dissolving 10 mg in a 100 mL (0.1 mg/mL) volumetric flask and completing to volume with PBS. Dilute solutions were obtained by appropriate dilution of this stock solution. […] PBS was used as the solvent. The absorbance of CS was measured at maximum absorption wavelength (λmax) of 237 nm against a solvent blank (PBS). […] Dissolution profiles were recorded for CS, Cromolyn-Zn, Cromolyn-Mg, and Cromolyn-Ca. […] The absorbance of CS was measured at 237 nm against the solvent blank. […] Absorbance measurements were performed on an Agilent Technologies Cary Series UV-Vis Spectrophotometer, Cary 100 UV-Vis; using the UV Cary Scan software version v.20.0.470. […] The absorbance was measured at the maximum wavelength (λmax=237 nm) for CS as the degradation of the pMCs progressed in PBS over time. […]

The conditions of series [5]: at 20° C.; cited from earlier work.

Take `O=C(O)c1cc(=O)c2c(OCC(O)COc3cccc4oc(C(=O)O)cc(=O)c34)cccc2o1` [CS, cromolyn sodium]: the bioavailability in series [1] is given as less than 1%. For the same molecule, the “dissolution / degradation in FaSSGF” value in series [2] is “no detectable dissolution”. Also, in series [3], the critical self-association concentration is listed as 10.00 mg/mL. Also, the “maximum concentration of CS dissolved” value in series [4] is recorded as roughly 98%. Also, the solubility in series [5] was roughly 100.0 mg/mL.
